What was measured:
Pfeiffer (EZH2 A677G) = assay: In vitro 50% growth inhibition (GI50), MTT/CCK8, Pfeiffer cells; type: cell-based, Human; settings: Homo sapiens, Pfeiffer, 240 h; Drug treatment for 10 days
From the text: (§1) In the present invention, a representative tumor cell line was selected to determine the cell growth inhibition activity of the present compound. Cell culture conditions and methods were in accordance with the requirements for each cell lines. The cells were subcultured in vitro for less than 3 generations each time, and as required, monoclone purification and identification of cell lines could be carried out.
(§2) The cell culture media used were RPMI1640 (Gibco) comprising 5-20% of fetal bovine serum (Gibco), 1% of double-antibiotic and 2 mM of glutamine.
(§3) Suspension culture cells were collected by centrifugation (1700 rpm, 3 minutes), and the supernatant was discarded and the cells were counted. According to each cell growth cycle, different concentrations of cells were prepared (1-10×10^4 cells per ml) and added to 96-well plates (Corning) with 100 μl per well, and then incubated overnight at 37° C., 5% CO2. The next day, the test compound was added to the cultured cells (2 wells in parallel). The final concentration of the solvent was less than 1/1,000. The cells were further cultured for 6 to 12 days and assayed by MTT.
(§4) The compound was stored at a concentration of 10 mM at −20° C. and diluted to two-fold or 10-fold series prior to use.
(§5) For the suspension culture cells, CCK8 was directly added to 10% of the final concentration. The cells were continually incubated for […].
(§6) The experiments were repeated 3 times and a statistical analysis of data was conducted.

[1] = system: EZH2 A677G mutant positive-expressing tumor cell line Pfeiffer; assay: In vivo growth inhibition, Pfeiffer subcutaneous transplantation model; settings: for Tumor volume: 200 mg/kg orally once a day
From the text: Test Example 2 Determination of the in vivo growth inhibition activity of the present compounds on EZH2 A677G mutant positive-expressing tumor cell line Pfeiffer NOD/SCID mice were subcutaneously inoculated with human diffuse large cell B lymphoma lymphocyte Pfeiffer (ATCC) expressing EZH2 A677G mutant protein to establish a subcutaneous transplantation model of human B cell lymphoma.
Experimental animals: NOD/SCID mice, female, 9 weeks (weeks of age when tumor cell inoculation), average weight 20.3 g, 18 mice, were purchased from Shanghai Lingchang biotechnology co., Ltd. with animal certificate No.: 2002007656. The breeding environment was SPF grade.
Test samples: the present example compounds 34 (purity: 99.03%) and 35 (purity: 97.6%), solid powder, preserved at −20° C.
Pfeiffer cells were cultured in RPM1640 medium containing 10% of fetal bovine serum. Log-phase Pfeiffer cells were collected and resuspended with PBS to 1×10^8 cells per ml for subcutaneous inoculation in NOD/SCID mice.
All the mice were treated with Co60 irradiation at a dose of 200 rad the day before the inoculation, and 1×10^7 Pfeiffer cells were then subcutaneously inoculated at the right back, and the cells were resuspended in 1:1 PBS and Matrigel (0.1 ml/mouse). When the average tumor volume was 134 mm^3, the mice were randomly grouped according to tumor size. Tumor volume was calculated as: long diameter×short diameter^2/2. The day of tumor cells inoculation was defined as day 0. The test was divided into solvent control group and drug treatment group (compound 34 group and compound 35 group). 6 mice for each group were given orally once a day for a total of 4 weeks. Efficacy was assessed based on relative tumor growth inhibition value (TGI), and safety was assessed based on animal weight change and mortality.
Preparation of test samples: compounds 34 or 35 was weighed and mixed with ultrapure water, and methanesulfonic acid was added for clarification. The PH value was about 1.64 at this moment. 4M NaOH was then added to adjust the PH to 3.5 and bring to volume by ultrapure water, the final concentrations was 20 mg/ml. Determination standard: TGI (%): […].
T/C % refers to the relative value-added rate of tumor, that is, the percentage value of relative tumor volume or tumor weight for the treatment group and the control group at a certain point. T and C were the relative tumor volumes (RTV) of the treatment group and the control group at a specific point, respectively. The calculation formula is as follows: T/C%=TRTV/CRTV*100% TRTV: mean RTV of the treatment group; CRTV: mean RTV of solvent control group; RTV=Vt/V0, V0 was the tumor volume of the animal when grouping, Vt was the tumor volume of the animal after treatment. Statistical analysis: all test results were defined as mean tumor volume±SEM (mean standard error). Tumor volume data of 27 days after the start of treatment were selected for statistical analysis among different groups, and independent sample T test was used to compare whether there were significant differences in tumor volume between the treatment group and the control group. All data were analyzed using SPSS 18.0. P<0.05 was considered as significant difference.

SU-DHL-8 (EZH2 WT) = assay: In vitro 50% growth inhibition (GI50), MTT/CCK8, SU-DHL-8 cells; type: cell-based; settings: Homo sapiens, SU-DHL-8, 144 h; Drug treatment for 6 days
From the text: as §1, §2, §3, §4, §5, §6

Karpas-422 (EZH2 Y641N) = assay: In vitro 50% growth inhibition (GI50), MTT/CCK8, Karpas-422 cells; type: cell-based; settings: Homo sapiens, KARPAS-422, 144 h; Drug treatment for 6 days
From the text: as §1, §2, §3, §4, §5, §6

[2] = In vivo pharmacokinetics in rats; settings: SD rats
Protocol: Test Example 4 Study of In Vivo Pharmacokinetics of the Present Compounds in Rats
Male SD rats (Shanghai Sippr-BK Experimental Animal Co., Ltd) were purchased and kept in Shanghai University of Traditional Chinese Medicine animal center (approved by the ethics committee of Shanghai University of Traditional Chinese Medicine) for 7 days. The rats were randomly divided into 4 groups (˜220 g), 3 rats for each group. Animals were administered intravenously (iv) and orally (po). The rats in po group were starved for 12 hours before administration. After administration, blood was collected from the orbital venous plexus at 0 min (before administration), 2 min, 5 min, 15 min, 30 min, 1 h, 2 h, 4 h, 6 h, 8 h and 24 h. About 200 ul of blood was collected at each time point, and were collected in 1.5 ml centrifuge tube containing heparin sodium. The upper blood […] were collected by centrifugation (8000 rpm, 3 min) and stored at −80° C.
Preparation of test samples: 125.0 mg compound 34 or compound 35 was weighed and added with 4 ml ultrapure water, and 25 ul methanesulfonic acid was added with stirring. The mixture was further stirred until clear and transparent (pH ˜3.32). 1 ml of the above solution was added with 4 ml of ultra-pure water to obtain 5 mg/ml of compound 34 or compound 35 solution (pH=3.5).
Dose and mode of administration: single oral dose (100 mpk) and single intravenous dose (5 mpk).
Administration volume: 4 ml/kg (orally), 1 ml/kg (intravenously).
The plasma concentration of the compound was determined by LC-MS/MS (AB scexqtrap@4500 LCMS/MS system). Pharmacokinetic parameters were calculated by WinNonlin (a professional software). The experiment was repeated once.

[3] = 200 mg/kg, 27th day after the start of treatment
[4] = 200 mg/kg, 27 days after the start of treatment

C=CC(=O)N1CCC(N(CC)c2cc(-c3ccc(CN4CCOCC4)cc3)cc(C(=O)NCc3c(C)cc(C)[nH]c3=O)c2C)CC1 [Example 35, N-(4,6-dimethyl-2-oxo-1,2-dihydro-pyridin-3-ylmethyl)-5-[(1-acryloyl-piperidin-4-yl)-ethyl-amino]-4-methyl-4′-(morpholin-4-ylmethyl)-[1,1′-biphenyl]-3-carboxamide]
GI50 (Pfeiffer (EZH2 A677G)): 0.001 to 0.01 µM | body weight during the treatment ([1]; 200 mg/kg dose): maintained a stable body weight | tolerability ([1]; 200 mg/kg dose): well tolerated | Tumor volume ([1]; Day 0 after the start of treatment): 134 ± 9 mm^3 | Tumor volume ([1]; Day 3 after the start of treatment): 324 ± 38 mm^3 | Tumor volume ([1]; Day 7 after the start of treatment): 681 ± 72 mm^3 | Tumor volume ([1]; Day 10 after the start of treatment): 635 ± 88 mm^3 | Tumor volume ([1]; Day 14 after the start of treatment): 710 ± 87 mm^3 | Tumor volume ([1]; Day 17 after the start of treatment): 751 ± 135 mm^3 | Tumor volume ([1]; Day 21 after the start of treatment): 801 ± 152 mm^3 | Tumor volume ([1]; Day 24 after the start of treatment): 1029 ± 193 mm^3 | Tumor volume ([1]; Day 27 after the start of treatment, listed as Compound 35): 1116 ± 196 mm^3 | Tumor volume ([1]; Day 27 after the start of treatment, listed as compound 35): 1116 mm^3 | RTV (x ± S), relative tumor volume [1, 3]: 8.2 ± 1.1 | T/C (%), relative tumor volume [1, 3]: 57.7% | TGI (%), relative tumor volume [1, 3]: 42.3% | T/C (%), tumor weight [1, 4]: 51.3% | TGI, tumor weight [1, 4]: 48.7% | Tumor weight (mg) (x ± S) [1, 4]: 580 ± 99 mg | anti-tumor effect, in words ([1]; 200 mg/kg, versus solvent control group): significant anti-tumor effects | GI50 (SU-DHL-8 (EZH2 WT)): > 1 µM | GI50 (Karpas-422 (EZH2 Y641N)): 0.01 to 0.1 µM | bioavailability, in words [2]: good bioavailability | bioavailability ([2]; male, rat, plasma, IV 5 mg/kg, PO 100 mg/kg, methanesulfonic acid aqueous solution): 39.1%

C=CC(=O)N1CCC(N(CC)c2cc(-c3cccc(CN4CCOCC4)c3)cc(C(=O)NCc3c(C)cc(C)[nH]c3=O)c2C)C1 (stereo not drawn) [Example 30, N-(4,6-dimethyl-2-oxo-1,2-dihydro-pyridin-3-ylmethyl)-5-[(1-acryloyl-pyrrolidin-3-yl)-ethyl-amino]-4-methyl-3′-(morpholin-4-yl)-methyl-[1,1′-biphenyl]-3-carboxamide]
GI50 (Pfeiffer (EZH2 A677G)): 0.001 to 0.01 µM | GI50 (SU-DHL-8 (EZH2 WT)): > 1 µM | GI50 (Karpas-422 (EZH2 Y641N)): 0.01 to 0.1 µM

C=CC(=O)N1CCC(N(CC)c2cc(-c3ccc(CN4CCOCC4)c(Cl)c3)cc(C(=O)NCc3c(C)cc(C)[nH]c3=O)c2C)C1 (stereo not drawn) [Example 21, N-(4,6-dimethyl-2-oxo-1,2-dihydro-pyridin-3-ylmethyl)-5-[(1-acryloyl-pyrrolidin-3-yl)-ethyl-amino]-3′-chloro-4′-(morpholin-4-ylmethyl)-4-methyl-biphenyl-3-carboxamide]
GI50 (Pfeiffer (EZH2 A677G)): 0.001 to 0.01 µM | GI50 (SU-DHL-8 (EZH2 WT)): > 1 µM | GI50 (Karpas-422 (EZH2 Y641N)): 0.1 to 1 µM

Source: patent US11214561B2, “Histone methyltransferase EZH2 inhibitor, preparation method and pharmaceutical use thereof” (ANCUREALL PHARMACEUTICAL (SHANGHAI) CO., LTD., priority 2017, dated 2022)
